Literature values as cited in patent US7468434B2, “Diazene-bridge crown ether lithium compounds and methods for their use” (The University of Hong Kong, priority 2004, dated 2008).

Test system: retinal ganglion cells
Details: ocular hypertensive model

Substance: lithium chloride
- prevention of degeneration of RGC: could prevent degeneration of RGC
